Source: ChEMBL document CHEMBL5143650, “Synthesis and biological evaluation of new series of quinazoline derivatives as EGFR/HER2 dual-target inhibitors” (Bioorg Med Chem Lett, 2022)
pIC50: −log10 of the molar value.

Tests used:
[1] = Inhibition of recombinant human N-terminal His-tagged EGFR (676 to 1255 residues) expressed in Sf21 insect cells at 200 uM using kinase substrate 22 incubated for 30 mins in presence of ATP relative to control
[2] = Inhibition of recombinant human N-terminal His-tagged EGFR (676 to 1255 residues) expressed in Sf21 insect cells using kinase substrate 22 incubated for 30 mins in presence of ATP
[3] = tested on: Calu-3; test: Antiproliferative activity against human Calu-3 cells assessed as reduction in cell viability after 72 hrs by CCK-8 assay; assay type: functional
[4] = tested on: PC-9; test: Antiproliferative activity against human PC-9 cells expressing EGFR E746/A750 deletion mutant assessed as reduction in cell viability after 72 hrs by CCK-8 assay; assay type: functional
[5] = tested on: NCI-H358; test: Antiproliferative activity against human NCI-H358 cells assessed as reduction in cell viability after 72 hrs by CCK-8 assay; assay type: functional
[6] = Antiproliferative activity against human NCI-H1781 cells expressing HER G776V mutant assessed as reduction in cell viability after 72 hrs by CCK-8 assay; assay type: functional
[7] = biological target: Epidermal growth factor receptor (Homo sapiens, UniProt P00533); test: Inhibition of recombinant human N-terminal GST-tagged EGFR (669 to 1210 residues) expressed in Sf21 insect cells using kinase substrate 22 incubated for 30 mins in presence of ATP
Chain of Epidermal growth factor receptor (P00533 whole entry, the tested form may be a part): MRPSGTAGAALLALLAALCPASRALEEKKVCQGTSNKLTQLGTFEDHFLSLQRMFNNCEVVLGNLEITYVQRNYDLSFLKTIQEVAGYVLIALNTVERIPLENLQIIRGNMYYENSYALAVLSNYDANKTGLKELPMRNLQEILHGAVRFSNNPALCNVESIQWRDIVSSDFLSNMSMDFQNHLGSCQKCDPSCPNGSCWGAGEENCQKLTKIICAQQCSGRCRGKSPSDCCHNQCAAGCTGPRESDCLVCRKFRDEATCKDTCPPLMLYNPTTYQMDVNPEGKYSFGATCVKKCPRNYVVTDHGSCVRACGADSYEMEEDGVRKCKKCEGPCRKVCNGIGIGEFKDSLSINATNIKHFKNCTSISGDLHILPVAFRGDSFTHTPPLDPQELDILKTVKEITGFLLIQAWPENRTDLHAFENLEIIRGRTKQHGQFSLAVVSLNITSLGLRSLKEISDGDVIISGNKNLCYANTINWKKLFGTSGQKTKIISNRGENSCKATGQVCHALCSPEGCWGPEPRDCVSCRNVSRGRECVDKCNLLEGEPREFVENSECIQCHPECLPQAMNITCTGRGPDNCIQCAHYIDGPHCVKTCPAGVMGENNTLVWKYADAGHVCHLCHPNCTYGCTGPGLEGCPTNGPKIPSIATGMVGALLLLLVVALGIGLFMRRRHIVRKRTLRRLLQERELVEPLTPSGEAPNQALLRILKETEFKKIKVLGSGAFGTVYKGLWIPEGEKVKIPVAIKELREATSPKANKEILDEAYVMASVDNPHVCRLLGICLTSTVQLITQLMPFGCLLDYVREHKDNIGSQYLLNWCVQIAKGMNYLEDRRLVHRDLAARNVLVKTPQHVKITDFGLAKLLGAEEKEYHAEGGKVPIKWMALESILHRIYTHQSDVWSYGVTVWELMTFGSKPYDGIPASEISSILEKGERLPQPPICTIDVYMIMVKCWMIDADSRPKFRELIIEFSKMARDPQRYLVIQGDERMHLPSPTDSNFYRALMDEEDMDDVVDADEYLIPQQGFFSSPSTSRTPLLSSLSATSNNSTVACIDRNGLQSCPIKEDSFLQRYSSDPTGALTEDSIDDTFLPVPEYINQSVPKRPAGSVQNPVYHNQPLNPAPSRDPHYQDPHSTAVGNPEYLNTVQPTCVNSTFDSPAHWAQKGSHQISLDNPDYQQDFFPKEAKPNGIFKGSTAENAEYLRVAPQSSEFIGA

Row | GI50 [3] [nM] | GI50 [4] [nM] | GI50 [5] [nM] | pIC50 [7] | SMILES | inhibition [1] [%] | pIC50 [2] | GI50 [6] [nM]
1 | – | – | – | – | C=CC(=O)N1CCN(C(=O)Oc2cc3c(Nc4ccc(Cl)c(Cl)c4F)ncnc3cc2OC)[C@H](C)C1 | 48.9 | – | –
2 | 10.1 | 0.9 | 8.67 | – | C=CC(=O)N1CCC(Oc2cc3c(Nc4ccc(Cl)c(Cl)c4F)ncnc3cc2OC)CC1 [POZIOTINIB] | 97.1 | 8.41 | 2.27
3 | – | – | – | – | C=C(F)C(=O)N1C[C@@H]2C[C@H]1CN2C(=O)Oc1cc2c(Nc3ccc(Cl)c(Cl)c3F)ncnc2cc1OC | 47.9 | – | –
4 | 23.1 | 1.95 | 23.3 | 9.52 | C=CC(=O)N1C[C@@H]2C[C@H]1CN2C(=O)Oc1cc2c(Nc3ccc(Cl)c(Cl)c3F)ncnc2cc1OC | 95.8 | 8.22 | 41.6
5 | – | – | – | – | C=C(C)C(=O)N1CCN(C(=O)Oc2cc3c(Nc4ccc(Cl)c(Cl)c4F)ncnc3cc2OC)[C@H](C)C1 | 43.6 | – | –
6 | – | – | – | – | C=CC(=O)N1CCN(C(=O)Oc2cc3c(Nc4ccc5scnc5c4)ncnc3cc2OC)[C@H](C)C1 | 5.8 | – | –
7 | – | – | – | – | C=CC(=O)N1CCN(C(=O)Oc2cc3c(Nc4ccc5ncccc5c4)ncnc3cc2OC)[C@H](C)C1 | 2.6 | – | –
8 | 718 | 299 | 671 | 9.49 | C#CC(=O)N1CCN(C(=O)Oc2cc3c(Nc4ccc(Cl)c(Cl)c4F)ncnc3cc2OC)[C@H](C)C1 | 94 | 7.65 | > 2000
9 | – | – | – | – | C=CC(=O)N1CCN(C(=O)Oc2cc3c(Nc4ccc(C#N)c(Cl)c4)ncnc3cc2OC)[C@H](C)C1 | 11.9 | – | –
10 | – | – | – | – | C=CC(=O)N1CCN(C(=O)Oc2cc3c(Nc4ccc(F)c(C#N)c4)ncnc3cc2OC)[C@H](C)C1 | 13.9 | – | –
11 | – | – | – | – | C=C(F)C(=O)N1CCN(C(=O)Oc2cc3c(Nc4ccc(Cl)c(Cl)c4F)ncnc3cc2OC)[C@H](C)C1 | 41.1 | – | –
12 | – | – | – | – | C=CC(=O)N1CCN(C(=O)Oc2cc3c(Nc4ccc(C#N)cc4)ncnc3cc2OC)[C@H](C)C1 | 4.4 | – | –
13 | – | – | – | – | C=C(F)C(=O)N1CCN(C(=O)Oc2cc3c(Nc4cnc5ccccc5c4)ncnc3cc2OC)[C@H](C)C1 | 11.5 | – | –
14 | – | – | – | – | C=CC(=O)N1CCN(C(=O)Oc2cc3c(Nc4ccc5ccccc5c4)ncnc3cc2OC)[C@H](C)C1 | 30.8 | – | –
15 | 1340 | 92.3 | 619 | 9.27 | C=CC(=O)Oc1cc2c(Nc3ccc(Cl)c(Cl)c3F)ncnc2cc1OC | 71.5 | 7.26 | > 2000
16 | 2.77 | 0.37 | 1 | – | CN(C)C/C=C/C(=O)Nc1cc2c(Nc3ccc(F)c(Cl)c3)ncnc2cc1O[C@H]1CCOC1 [AFATINIB] | 102 | 8.77 | 0.23
17 | – | – | – | – | C=CC(=O)N1CCN(C(=O)Oc2cc3c(Nc4ccc(C#N)c(F)c4)ncnc3cc2OC)[C@H](C)C1 | 2.3 | – | –
18 | 553 | 90.8 | 1020 | 9.42 | C=C(C(=O)N1CCN(C(=O)Oc2cc3c(Nc4ccc(Cl)c(Cl)c4F)ncnc3cc2OC)[C@H](C)C1)C(F)(F)F | 82.7 | 7.55 | > 2000
19 | 264 | 6.03 | 464 | 9.47 | C=CC(=O)N1CCN(C(=O)Oc2cc3c(Nc4cccc(Cl)c4F)ncnc3cc2OC)[C@H](C)C1 | 53.4 | 6.82 | > 2000
20 | – | – | – | – | C=CC(=O)N1CCN(C(=O)Oc2cc3c(Nc4cc(C(C)(C)C)no4)ncnc3cc2OC)[C@H](C)C1 | 14.6 | – | –
21 | – | – | – | – | C=CC(=O)N1CCN(C(=O)Oc2cc3c(Nc4cnc5ccccc5c4)ncnc3cc2OC)[C@H](C)C1 | 14.9 | – | –
